The values that follow come from ChEMBL document CHEMBL4041483, “Aldgamycins J-O, 16-Membered Macrolides with a Branched Octose Unit from Streptomycetes sp. and Their Antibacterial Activities” (2016).

The MIC is the least concentration at which growth counts as inhibited.

Values after ≈ are worked out from the molar mass of the structure shown.

What all share (format): functional
In one test the test system is Staphylococcus aureus. As to the kind of experiment: Antibacterial activity against Staphylococcus aureus 209P incubated at room temperature for 30 mins followed by incubation at 37 degC for 12 hrs by two-fold dilution method.
The next test relates to Escherichia coli. In words: Antibacterial activity against Escherichia coli ATCC 0111 incubated at room temperature for 30 mins followed by incubation at 37 degC for 12 hrs by two-fold dilution method.
A further test relates to Candida albicans. In words: Antifungal activity against Candida albicans FIM709 incubated at room temperature for 30 mins followed by incubation at 32 degC for 12 hrs by two-fold dilution method.
In the next test the test system is Aspergillus niger. In words: Antifungal activity against Aspergillus niger R330 incubated at room temperature for 30 mins followed by incubation at 32 degC for 12 hrs by two-fold dilution method.

On to `NC[C@H]1O[C@H](O[C@H]2[C@H](O)[C@@H](O[C@H]3O[C@H](CO)[C@@H](O)[C@H](N)[C@H]3O)[C@H](N)C[C@@H]2N)[C@H](N)C[C@@H]1O` [TOBRAMYCIN], for which the MIC against Staphylococcus aureus came out at 0.2 µg/mL (≈ 0.428 µM); in the test with Escherichia coli, 2 µg/mL (≈ 4.28 µM).

As for `CO[C@@H]1[C@H](O)[C@@H](C)O[C@@H](OC[C@H]2[C@@H]3O[C@H]3/C=C/C(=O)[C@@](C)(O)C[C@H](C)[C@H](O[C@@H]3O[C@H](C)C[C@H](OC)[C@H]3O)[C@@H](C)/C=C/C(=O)O[C@@H]2C)[C@@H]1OC`, the MIC in the test on Staphylococcus aureus is 4 µg/mL (≈ 5.71 µM); against Candida albicans, above 500 µg/mL; with Aspergillus niger it was above 500 µg/mL; against Escherichia coli, above 500 µg/mL.

As for `CO[C@@H]1[C@H](O)[C@@H](C)O[C@@H](OC[C@H]2/C=C/C=C/C(=O)[C@H](C)C[C@H](C)[C@H](O[C@@H]3O[C@H](C)C[C@](O)([C@H](C)O)[C@H]3O)[C@@H](C)/C=C/C(=O)O[C@@H]2C)[C@@H]1OC`, the MIC with Staphylococcus aureus was 125 µg/mL (≈ 179 µM); in the test with Candida albicans it was above 1000 µg/mL; against Aspergillus niger, above 1000 µg/mL; in the test on Escherichia coli, above 1000 µg/mL.

For the molecule `C[C@@H]1C[C@@H]([C@H](O)CC2CC(=O)NC(=O)C2)C(=O)[C@@H](C)C1` [CYCLOHEXIMIDE], the MIC with Candida albicans came to 64 µg/mL (≈ 227 µM); against Aspergillus niger, 32 µg/mL (≈ 114 µM).

Take `CO[C@@H]1[C@H](O)[C@@H](C)O[C@@H](OC[C@H]2/C=C/CCC(=O)[C@H](C)C[C@H](C)[C@H](O[C@@H]3O[C@H](C)C[C@](O)([C@H](C)O)[C@H]3O)[C@@H](C)/C=C/C(=O)O[C@@H]2C)[C@@H]1OC`: the MIC in the test with Staphylococcus aureus was 500 µg/mL (≈ 713 µM); against Candida albicans, above 500 µg/mL; against Aspergillus niger it was above 500 µg/mL; in the test on Escherichia coli, above 500 µg/mL.

As for `CO[C@@H]1[C@H](O)[C@@H](C)O[C@@H](OC[C@H]2/C=C/CCC(=O)[C@H](C)C[C@H](C)[C@H](O[C@@H]3O[C@H](C)C[C@@]4(OC(=O)O[C@H]4C)[C@H]3O)[C@@H](C)/C=C/C(=O)O[C@@H]2C)[C@@H]1OC`, the MIC against Staphylococcus aureus is 32 µg/mL (≈ 44 µM); with Candida albicans, above 500 µg/mL; against Aspergillus niger it was above 500 µg/mL; against Escherichia coli, above 500 µg/mL.

Regarding `CO[C@@H]1[C@H](O)[C@@H](C)O[C@@H](OC[C@H]2[C@@H]3O[C@H]3CCC(=O)[C@@](C)(O)C[C@H](C)[C@H](O[C@@H]3O[C@H](C)C[C@](O)([C@H](C)O)[C@H]3O)[C@@H](C)/C=C/C(=O)O[C@@H]2C)[C@@H]1OC`, the MIC was 500 µg/mL (≈ 682 µM) against Staphylococcus aureus, above 1000 µg/mL with Candida albicans, above 1000 µg/mL in the test with Aspergillus niger and above 1000 µg/mL in the test with Escherichia coli.

For the molecule `CO[C@@H]1[C@H](O)[C@@H](C)O[C@@H](OC[C@H]2/C=C/C=C/C(=O)[C@@](C)(O)C[C@H](C)[C@H](O[C@@H]3O[C@H](C)C[C@](O)([C@H](C)O)[C@H]3O)[C@@H](C)/C=C/C(=O)O[C@@H]2C)[C@@H]1OC`, the MIC is 16 µg/mL (≈ 22.4 µM) in the test with Staphylococcus aureus, above 500 µg/mL in the test with Candida albicans, above 500 µg/mL with Aspergillus niger and above 500 µg/mL in the test on Escherichia coli.

Take `CO[C@@H]1[C@H](O)[C@@H](C)O[C@@H](OC[C@H]2/C=C/CCC(=O)[C@@](C)(O)C[C@H](C)[C@H](O[C@@H]3O[C@H](C)C[C@](O)([C@H](C)O)[C@H]3O)[C@@H](C)/C=C/C(=O)O[C@@H]2C)[C@@H]1OC`: the MIC against Staphylococcus aureus was 32 µg/mL (≈ 44.6 µM); against Candida albicans, above 500 µg/mL; against Aspergillus niger, above 500 µg/mL; in the test with Escherichia coli, above 500 µg/mL.

On to `CO[C@@H]1[C@H](O)[C@@H](C)O[C@@H](OC[C@H]2[C@@H]3O[C@H]3CCC(=O)[C@H](C)C[C@H](C)[C@H](O[C@@H]3O[C@H](C)C[C@](O)([C@H](C)O)[C@H]3O)[C@@H](C)/C=C/C(=O)O[C@@H]2C)[C@@H]1OC`, for which the MIC in the test with Staphylococcus aureus, in the test on Candida albicans, in the test with Aspergillus niger and against Escherichia coli was above 1000 µg/mL each time.
